Measurements: ChEMBL document CHEMBL4354803, “Synthesis and biological activity of structurally diverse phthalazine derivatives: A systematic review” (Bioorg Med Chem, 2019)

Experiments:
[1] = biological target: Cystic fibrosis transmembrane conductance regulator (Homo sapiens, UniProt P13569, F508DEL/H148Q/I152L); test: Inhibition of human CFTR F508 deletion mutant expressed in rat FRT cells coexpressing YFP-H148Q/I152L 25,22 incubated for 60 to 120 mins in presence of forskolin by fluorescent method; assay type: cell-based
[2] = biological target: T1, Poly [ADP-ribose] polymerase 1 (Homo sapiens, UniProt P09874); test: Inhibition of human PARP1 expressed in Escherichia coli incubated for 10 mins by colorimetric assay
[3] = Inhibition of recombinant human PARP expressed in Escherichia coli in presence of NAD+ by microplate scintillation counting method
[4] = Inhibition of PARP in human C41 cells assessed as reduction in protein accumulation preincubated for 30 mins followed by H2O2 addition and measured after 10 mins by FITC/DAPI-staining based fluorescence method; assay type: cell-based
Aurora kinase A = biological target: T2, Aurora kinase A (Homo sapiens, UniProt O14965); test: Inhibition of C-terminal His4-tagged Aurora A (unknown origin) using PKB-GSK2 biotinylated peptide as substrate incubated for 90 mins by ELISA
T2 sequence (O14965 whole entry): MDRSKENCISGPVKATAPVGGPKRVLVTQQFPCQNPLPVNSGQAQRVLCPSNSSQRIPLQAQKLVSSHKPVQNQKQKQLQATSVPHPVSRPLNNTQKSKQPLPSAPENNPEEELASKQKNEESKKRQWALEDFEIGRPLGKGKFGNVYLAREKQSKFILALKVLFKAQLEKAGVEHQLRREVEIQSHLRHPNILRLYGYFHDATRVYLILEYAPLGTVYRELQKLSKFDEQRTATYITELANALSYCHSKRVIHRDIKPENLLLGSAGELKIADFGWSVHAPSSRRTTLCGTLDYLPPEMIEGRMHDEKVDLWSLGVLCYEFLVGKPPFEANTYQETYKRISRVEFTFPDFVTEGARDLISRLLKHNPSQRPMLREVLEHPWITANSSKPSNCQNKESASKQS

HCT-116 = test: Antiproliferative activity against human HCT116 cells after 5 days by CellTiter-Glo Luminescent Cell Viability Assay; assay type: functional, cell-based; conditions: HCT-116, 120 h
HepG2 [5] = test: Potency index, ratio of sorafenib IC50 to compound IC50 for cytotoxicity against human HepG2 cells by sulforhodamine B assay; assay type: functional
HepG2 [6] = test: Potency index, ratio of doxorubicin IC50 to compound IC50 for cytotoxicity against human HepG2 cells by sulforhodamine B assay; assay type: functional
Mus musculus [7] = test: Antidiabetic activity in C57BL/KsJ mouse assessed as maximum reduction in blood glucose level at 200 mg/kg, po administered for 9 days by spectrometric method relative to control; assay type: functional; parameters: scale not given: the % may be the effect or the level left
[8] = biological target: T1, Poly [ADP-ribose] polymerase 1; test: Inhibition of human PARP1 expressed in Escherichia coli using histone as substrate by ELISA
Mus musculus [9] = test: Potency index, ratio of valproate ED50 to compound ED50 for Anticonvulsant activity in ip dosed ICR mouse assessed as protection against 50 mA current-induced seizure pretreated for 30 mins followed by seizure induction measured for 60 mins by maximal electroshock seizure test; assay type: functional
Mus musculus [10] = species: Mus musculus; test: animal or person; conditions: ICR, ip
MDA-MB-468 = test: Growth inhibition of human MDA-MB-468 cells after 7 days by CCK-8 method; assay type: functional, cell-based; conditions: MDA-MB-468, 168 h
CAPAN-1 = test: Growth inhibition of human Capan1 cells after 7 days by CCK-8 method; assay type: functional, cell-based; conditions: CAPAN-1, 168 h
[11] = Induction of mouse primary oligodendrocytes incubated for 16 to 24 hrs by WSTl reagent based assay; assay type: functional
HUVEC = test: Induction of HUVEC proliferation incubated for 20 hrs followed by 3H thymidine incorporation and measured after 4 hrs by beta counting method; assay type: functional, cell-based; conditions: Homo sapiens
Prostaglandin E synthase = biological target: T3, Prostaglandin E synthase (Homo sapiens, UniProt O14684); test: Inhibition of mPGES-1 in human A549 cells assessed as reduction in […] induced PGE2 release preincubated for 30 mins followed by […] addition and measured after 16 to 20 hrs by HTRF assay; assay type: cell-based
T3 sequence (O14684 whole entry): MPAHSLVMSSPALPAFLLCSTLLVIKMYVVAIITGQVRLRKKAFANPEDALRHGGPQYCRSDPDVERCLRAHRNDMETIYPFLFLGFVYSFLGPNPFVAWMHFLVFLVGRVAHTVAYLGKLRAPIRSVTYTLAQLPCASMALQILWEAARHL

Mus musculus [12] = test: Anticonvulsant activity in ip dosed Kunming mouse assessed as protection against 50 mA current-induced seizure measured after 0.5 hrs by maximal electroshock seizure test; assay type: functional

T1 sequence (P09874 whole entry): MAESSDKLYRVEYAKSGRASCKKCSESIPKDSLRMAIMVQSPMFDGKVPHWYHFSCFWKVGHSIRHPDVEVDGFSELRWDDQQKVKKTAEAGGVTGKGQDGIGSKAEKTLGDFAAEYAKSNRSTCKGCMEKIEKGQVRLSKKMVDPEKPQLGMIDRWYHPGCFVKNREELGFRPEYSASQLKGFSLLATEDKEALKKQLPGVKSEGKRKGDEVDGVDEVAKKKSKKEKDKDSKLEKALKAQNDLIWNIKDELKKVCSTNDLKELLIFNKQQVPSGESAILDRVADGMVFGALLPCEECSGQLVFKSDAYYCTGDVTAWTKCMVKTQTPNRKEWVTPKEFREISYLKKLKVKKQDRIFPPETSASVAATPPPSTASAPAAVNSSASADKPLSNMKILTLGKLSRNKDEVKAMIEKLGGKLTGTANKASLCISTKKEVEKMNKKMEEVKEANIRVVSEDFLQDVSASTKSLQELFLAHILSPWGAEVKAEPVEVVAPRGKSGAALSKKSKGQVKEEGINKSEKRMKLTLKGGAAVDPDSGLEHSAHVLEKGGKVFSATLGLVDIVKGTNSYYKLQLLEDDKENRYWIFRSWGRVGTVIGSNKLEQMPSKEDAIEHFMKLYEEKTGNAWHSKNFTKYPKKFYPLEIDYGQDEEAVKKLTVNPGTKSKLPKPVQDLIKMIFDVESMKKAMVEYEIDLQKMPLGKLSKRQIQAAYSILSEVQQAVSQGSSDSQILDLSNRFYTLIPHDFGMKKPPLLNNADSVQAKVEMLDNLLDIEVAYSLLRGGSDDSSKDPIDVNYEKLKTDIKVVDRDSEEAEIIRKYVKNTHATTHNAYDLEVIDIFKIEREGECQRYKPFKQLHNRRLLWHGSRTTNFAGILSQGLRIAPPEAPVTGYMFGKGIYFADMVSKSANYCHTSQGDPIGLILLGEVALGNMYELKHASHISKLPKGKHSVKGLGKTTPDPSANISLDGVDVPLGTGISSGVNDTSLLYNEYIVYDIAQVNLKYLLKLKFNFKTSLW
Cystic fibrosis transmembrane conductance regulator, sequence (P13569 whole entry, looked up, stated change not applied): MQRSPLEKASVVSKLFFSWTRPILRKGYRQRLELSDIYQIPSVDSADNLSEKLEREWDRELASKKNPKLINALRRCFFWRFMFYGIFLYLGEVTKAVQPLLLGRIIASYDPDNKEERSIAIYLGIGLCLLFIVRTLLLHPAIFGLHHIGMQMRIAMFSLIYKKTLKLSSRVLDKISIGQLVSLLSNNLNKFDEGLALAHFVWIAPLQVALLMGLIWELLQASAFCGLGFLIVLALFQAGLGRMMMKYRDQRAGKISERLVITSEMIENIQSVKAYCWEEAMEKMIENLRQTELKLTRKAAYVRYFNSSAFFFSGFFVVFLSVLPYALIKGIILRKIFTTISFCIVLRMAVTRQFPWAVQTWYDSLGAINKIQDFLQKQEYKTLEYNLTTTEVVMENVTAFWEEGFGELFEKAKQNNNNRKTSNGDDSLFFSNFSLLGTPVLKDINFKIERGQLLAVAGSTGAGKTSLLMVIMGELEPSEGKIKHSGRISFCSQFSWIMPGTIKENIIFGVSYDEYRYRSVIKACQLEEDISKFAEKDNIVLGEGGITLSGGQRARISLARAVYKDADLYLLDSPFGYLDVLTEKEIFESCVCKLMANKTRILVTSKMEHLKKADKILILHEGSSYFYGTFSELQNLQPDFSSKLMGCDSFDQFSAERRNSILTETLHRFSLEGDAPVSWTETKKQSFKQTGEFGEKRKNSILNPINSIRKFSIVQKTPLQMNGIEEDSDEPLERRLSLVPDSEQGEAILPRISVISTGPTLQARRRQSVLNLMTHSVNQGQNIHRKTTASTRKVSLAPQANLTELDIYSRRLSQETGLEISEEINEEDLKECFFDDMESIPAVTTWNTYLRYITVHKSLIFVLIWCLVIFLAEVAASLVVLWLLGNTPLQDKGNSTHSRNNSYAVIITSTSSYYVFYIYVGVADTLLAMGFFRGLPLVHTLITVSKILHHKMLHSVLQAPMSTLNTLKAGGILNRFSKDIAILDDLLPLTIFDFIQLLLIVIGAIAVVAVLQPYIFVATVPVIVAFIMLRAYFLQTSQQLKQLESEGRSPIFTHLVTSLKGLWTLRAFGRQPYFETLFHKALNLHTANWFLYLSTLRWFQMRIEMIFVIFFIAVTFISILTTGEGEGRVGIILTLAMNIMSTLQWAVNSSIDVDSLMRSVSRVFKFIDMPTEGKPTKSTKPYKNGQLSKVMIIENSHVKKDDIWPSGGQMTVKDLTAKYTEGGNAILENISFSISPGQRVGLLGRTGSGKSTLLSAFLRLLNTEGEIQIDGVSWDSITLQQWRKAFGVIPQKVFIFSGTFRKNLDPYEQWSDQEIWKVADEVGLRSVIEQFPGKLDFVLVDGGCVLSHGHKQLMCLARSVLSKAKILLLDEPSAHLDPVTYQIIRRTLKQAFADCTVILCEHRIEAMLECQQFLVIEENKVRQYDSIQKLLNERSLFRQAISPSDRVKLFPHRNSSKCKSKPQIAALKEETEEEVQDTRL

**Q.** Which EC50 [1] does the source give for `Cc1nc2ccc(N(C)C(=O)Cn3nc(-c4cccc(Cl)c4)c4ccccc4c3=O)cc2o1` here?
**A.** The EC50 was < 10000 nM.

**Q.** With `O=C(c1cc(Cc2n[nH]c(=O)c3ccccc23)ccc1F)N1CCn2c(nnc2C2CC2)C1` as the compound, how does the IC50 [2] read?
**A.** Its IC50 is 8.41 nM.

**Q.** For `O=C(c1cc(Cc2n[nH]c(=O)c3ccccc23)ccc1F)N1CCN(c2ncccn2)CC1`, which IC50 [3] is on record?
**A.** Its IC50 is 0.7 nM.

**Q.** What about the EC50 [4] of the same compound?
**A.** The EC50 was 0.7 nM.

**Q.** Which results are given for `Cc1cc(Nc2nn(C(C)C)c(=O)c3cc(OCCN4CCOCC4)ccc23)n[nH]1`?
**A.** IC50 (Aurora kinase A): 420 nM; IC50 (HCT-116): 7 nM

**Q.** For `O=C(Cn1nc(Cc2ccccc2)c2ccccc2c1=O)Nc1ccccc1Cl`, which “Ratio IC50” value (HepG2 [5]) is on record?
**A.** The value was 2.9.

**Q.** And the “Ratio IC50” value (HepG2 [6])?
**A.** The value was 2.9.

**Q.** For `Cc1nn(CCOc2ccc(CC3SC(=O)NC3=O)cc2)c(=O)c2ccccc12` (stereo not drawn), which Activity (Mus musculus [7]) is on record?
**A.** Its Activity is “<=61%”.

**Q.** For `CCN1CCCC2CN(C(=O)c3cc(Cc4n[nH]c(=O)c5ccccc45)ccc3F)CC21` (stereo not drawn), which IC50 [8] is on record?
**A.** Its IC50 is 2 nM.

**Q.** What does the source list for `COC(=O)CSc1nnc(Cn2[nH]c(=O)c3ccccc3c2=O)o1`?
**A.** Ratio ED50 (Mus musculus [9]): 10; ED50 (Mus musculus [10]): 172 µmol/kg

**Q.** With `O=C(c1cc(Cc2n[nH]c(=O)c3ccccc23)ccc1F)N1CCn2c(nnc2C(F)F)C1` as the compound, how does the IC50 (MDA-MB-468) read?
**A.** The IC50 was 0.003 nM.

**Q.** What about the IC50 (CAPAN-1) of the same compound?
**A.** Its IC50 is 0.003 nM.

**Q.** Which results are given for `O=c1[nH]nc(-c2ccc(N3CCCCCC3)c([N+](=O)[O-])c2)c2ccccc12`?
**A.** EC50 [11]: 200 nM; EC50 (HUVEC): 2500 nM

**Q.** Which IC50 (Prostaglandin E synthase) does the source give for `O=C(Nc1ccc2cnn(-c3ccc(Br)cc3)c(=O)c2c1)c1c(F)cccc1Cl` here?
**A.** Its IC50 is < 50 nM.

**Q.** Which ED50 (Mus musculus [12]) does the source give for `FC(F)(F)c1cccc(COc2nn3cnnc3c3ccccc23)c1` here?
**A.** The ED50 was 9.3 mg/kg.
